These results are taken from US9718837B2, “Nitrogen-containing heterocyclic ring substituted dihydroartemisinin derivatives and use thereof” (Shenyang Pharmaceutical University, priority 2013, dated 2017).

SMILES strings stand for the structures. Where two headings read alike, the source gives them in different places.

Data set [1] relates to Murine leukemia cells (P388). Kind of data set: Cell growth inhibition by direct cell counting, P388. The data set is classed as cell-based. Conditions: read-out: IG50 P388. The method, then:
(§1) Cells were taken out carefully from liquid nitrogen (Frozen pipes), and the cell freezing medium was thawed rapidly in water bath at 37° C. in order to rapidly pass through the temperature range of 0 to 5° C. within which the cell is easily damaged. Cell suspension was sucked with pipette gun and put it into centrifugal tubes under sterile condition, then was centrifuged for 3 min at 1300 r/min. The supernatant was gently discarded, and then added with a fresh medium to pipette and mix the cells. Finally, the cells were transferred into culture flasks, and cultured in a carbon dioxide incubator. The medium was changed once after 24 h.
(§2) Human leukemia cells (HL-60) were cultured in RPMI1640 medium containing 10% (v/v) fetal bovine serum, 100 U/mL penicillin and 100 μg/mL streptomycin. Murine leukemia cells (P388) and murine multidrug resistant leukemia cells (P388/Adr) were cultured in Eagle's minimum essential medium (MEM) containing 10% (v/v) fetal bovine serum, 100 U/mL penicillin and 100 μg/mL streptomycin. All of the above cell lines were incubated in 37° C. incubator with 5% carbon dioxide saturated humidity.
(§3) After resuscitation, the cells were passed for 2-3 generations till they became stable, then they were used for the experiments. Each passage was based on the standard that all cells were spread over the bottoms of culture flasks.
(§4) Cell suspensions of a certain density (5×10^4 cells/mL) were plated at 24-well plate, 2 mL/well. Different concentration of drugs were added thereto, and incubated or some time. Then, cells were counted under the microscope. The ratio of total number of cells in test group to the total number of cells in control group is the cell growth inhibition rate under the concentration condition. The total number of cells in cell suspension, which were treated by drugs, could be counted by blood count board. Inhibition rate was calculated using the formula: […]
(§5) According to cell growth inhibition rate of each concentration of drugs, half inhibitory concentration could be calculated. (IG50 is the drug concentration, when cell growth inhibition rate was 50%.)
(§6) 6) The Results of the Growth Inhibitory Activity of the Compounds on Murine Leukemia Cells (P388) and Murine Multidrug Resistant Leukemia Cells (P388/Adr) were Listed in Table 2.

In data set [2] the test system is murine multidrug resistant leukemia cells (P388/Adr). Briefly: Cell growth inhibition by direct cell counting, P388/Adr. Conditions: read-out: IG50 P388/Adr. The data set is classed as cell-based. The method, then:
as §1, §2, §3, §4, §5, §6

The subject of data set [3] is Human Breast Cancer Cells (MCF-7). Kind of data set: Cell growth inhibition by direct cell counting, MCF-7. The format is cell-based. The conditions noted are these: MCF-7 cells, read-out: IG50 MCF-7. The method, then:
as §1, §3, §4, §5
(§7) 7) The Results of the Growth Inhibitory Activity of the Compounds on Human Breast Cancer Cells (MCF-7) and Human Multidrug Resistant Breast Cancer Cells (MCF-7/Adr) were Listed in Table 3.

The test system of data set [4] is Human leukemia cells (HL-60). Kind of data set: Cell growth inhibition by direct cell counting, HL-60. The data set is classed as cell-based. Conditions: HL-60 cells, drug concentration at 50% cell growth inhibition, read-out: IG50 (the source's name). The method, then:
as §1, §2, §3, §4, §5

The subject of data set [5] is Human Multidrug Resistant Breast Cancer Cells (MCF-7/Adr). Briefly: Cell growth inhibition by direct cell counting, MCF-7/Adr. The data set is classed as cell-based. The conditions noted are these: MCF-7/Adr multidrug resistant cells, read-out: IG50 MCF-7/Adr. Here is the method: as §1, §3, §4, §5, §7

Turning to `C[C@H]1[C@@H](Oc2ccc(/C=C/C(=O)N3CCN(C)CC3)cc2)O[C@@H]2O[C@@]3(C)CC[C@H]4[C@H](C)CC[C@@H]1[C@@]24OO3` [Example 24], the IC50 in data set [1] turned out to be 0.299 µM; in data set [2], 0.918 µM.
On to `C[C@H]1[C@@H](Oc2ccc(/C=C/C(=O)Oc3ccc(/C=C/C(=O)N4CCCCC4)cc3)cc2)O[C@@H]2O[C@]3(C)CC[C@H]4[C@H](C)CC[C@@H]1[C@@]24OO3` [Example 31, 4-[(10S)-dihydroartemisinin-10-O-yl]phenyl-acrylic acid-4-[3-oxo-3-(piperidin-1-yl)-1-(E)-propen-1-yl]phenyl ester], for which the melting point lay within 160 to 163 °C. Besides, in data set [3] (Homo sapiens, MCF7), the IC50 was found to be 0.063 µM.
For `CC1CCC2C(C)C(Oc3ccc(CN4CCN(Cc5ccccc5)CC4)cc3)OC3OC4(C)CCC1C32OO4` [Example 16, 10-O-[4-[(4-benzylpiperazin-1-yl)methyl]phenyl]-(10S)-dihydroartemisinin], the IC50 in data set [4] worked out at 0.105 µM.
As for `CC1CCC2C(C)[C@@H](Oc3ccc(CN4CCN(CC=Cc5ccccc5)CC4)cc3)OC3OC4(C)CCC1C32OO4` (stereo partly drawn) [Example 17, 10-O-[4-[(4-cinnamylpiperazin-1-yl)methyl]phenyl]-(10S)-dihydroartemisinin], in data set [4], the IC50 was determined as 0.059 µM.
On to `C[C@H]1[C@@H](Oc2ccc(CC(=O)N3CCCC3)cc2)O[C@@H]2O[C@]3(C)CC[C@@H]4[C@H](C)CC[C@@H]1[C@@]24OO3` [Example 33, (10S)—O-{4-[2-(pyrrolidin-1-yl)-2-oxoethyl]phenyl}-dihydroartemisinin], for which the melting point fell in the range of 73 to 74 °C. In data set [3] (Homo sapiens, MCF7), the IC50 is 3.23 µM. For the same compound, in data set [5] (Homo sapiens, NCI/ADR-RES), the IC50 was 0.122 µM.
Regarding `C[C@H]1[C@@H](Oc2ccc(/C=C/C(=O)N3CCCC3)cc2)O[C@@H]2O[C@]3(C)CC[C@H]4[C@H](C)CC[C@@H]1[C@@]24OO3` [Example 20, (10S)—O-{4-[3-oxo-3-(pyrrolidin-1-yl)-1-(E)-propen-1-yl]phenyl}-dihydroartemisinin], the melting point was in the range of 165 to 167 °C. Further, in data set [3] (Homo sapiens, MCF7), the IC50 was 0.123 µM.
As for `C[C@H]1[C@@H](Oc2ccc(CN3CCN(C)CC3)cc2)O[C@@H]2O[C@@]3(C)CC[C@H]4[C@H](C)CC[C@@H]1[C@@]24OO3` [Example 7, (10S)—O-[4-((4-methylpiperazin-1-yl)methyl)phenyl]-dihydroartemisinin], the IC50 in data set [4] worked out at 0.12 µM.
`CCN1CCN(C(=O)/C=C/c2ccc(O[C@H]3OC4OC5(C)CCC6C(C)CCC(C3C)C46OO5)cc2)CC1` (stereo partly drawn) [Example 25, (10S)—O-{4-[3-oxo-3-(4-ethylpiperazin-1-yl)-1-(E)-propen-1-yl]phenyl}-dihydroartemisinin]: the values for the IC50 in data set [1] and in data set [2] were 0.152 µM and 0.223 µM, respectively.
With `CC1CCC2C(C)[C@@H](Oc3ccc(CN4CCN(C(C)C)CC4)cc3)OC3OC4(C)CCC1C32OO4` (stereo partly drawn) [Example 9, (10S)—O-[4-((4-isopropylpiperazin-1-yl)methyl)phenyl]-dihydroartemisinin], the IC50 in data set [4] stood at 0.071 µM.
`C[C@H]1[C@@H](Oc2ccc(Cn3ccnc3)cc2)O[C@@H]2O[C@]3(C)CC[C@H]4[C@H](C)CC[C@@H]1[C@@]24OO3` [Example 2, (10S)—O-[4-((imidazol-1-yl)methyl)phenyl]-dihydroartemisinin]: the melting point lay in the range of 65 to 67 °C. The IC50 in data set [3] (Homo sapiens, MCF7) stood at 0.211 µM. The IC50 in data set [5] (Homo sapiens, NCI/ADR-RES) turned out to be 0.631 µM.
As for `CC1CCC2C(C)[C@@H](Oc3ccc(/C=C/C(=O)N4CCN(c5ccccc5)CC4)cc3)OC3OC4(C)CCC1C32OO4` (stereo partly drawn) [Example 26, (10S)—O-{4-[3-oxo-3-(4-phenylpiperazin-1-yl)-1-(E)-propen-1-yl]phenyl}-dihydroartemisinin], the IC50 in data set [1] turned out to be 0.145 µM; in data set [2], 0.153 µM.
Regarding `CC1CCC2C(C)[C@@H](Oc3ccc(CN4CCN(c5ccccc5)CC4)cc3)OC3OC4(C)CCC1C32OO4` (some centres unmarked) [Example 10], the values for the IC50 in data set [1], in data set [4] and in data set [2] were 0.07 µM, 0.033 µM and 0.088 µM, respectively.
For the compound `C[C@H]1[C@@H](Oc2ccc(CN3CCCCC3)cc2)O[C@@H]2O[C@]3(C)CC[C@H]4[C@H](C)CC[C@@H]1[C@@]24OO3` [Example 5, (10S)—O-[4-((piperidin-1-yl)methyl)phenyl]-dihydroartemisinin], the IC50 in data set [1] (Mus musculus) was determined as 0.88 µM; in data set [4] (Homo sapiens) it was 0.228 µM; in data set [2] (Mus musculus) it was 0.804 µM.
Take `CC1CCC2C(C)[C@@H](Oc3ccc(CN4CCC(N5CCCCC5)CC4)cc3)OC3OC4(C)CCC1C32OO4` (stereo partly drawn) [Example 6, (10S)—O-[4-[(4-(piperidinyl)piperidin-1-yl)methyl]phenyl]-dihydroartemisinin]: in data set [4], the IC50 was 0.079 µM.
Turning to `C[C@H]1[C@@H](Oc2ccc(CC(=O)Nc3ccccc3)cc2)O[C@@H]2O[C@]3(C)CC[C@@H]4[C@H](C)CC[C@@H]1[C@@]24OO3` [Example 47, (10S)—O-[4-(2-phenylamino-2-oxoethyl)phenyl]-dihydroartemisinin], the melting point fell in the range of 172 to 173 °C. In addition, the IC50 in data set [3] (Homo sapiens, MCF7) is 1.55 µM. Moreover, the IC50 in data set [5] (Homo sapiens, NCI/ADR-RES) came out at 0.00966 µM.
On to `C[C@H]1[C@@H](Oc2ccc(CN3CCN(c4ccccn4)CC3)cc2)O[C@@H]2O[C@@]3(C)CC[C@H]4[C@H](C)CC[C@@H]1[C@@]24OO3` [Example 14, 10-O-[4-[(4-(2-pyridyl)piperazin-1-yl)methyl]phenyl]-(10S)-dihydroartemisinin], for which the IC50 in data set [3] came out at 1.28 µM; in data set [5], 1.38 µM.
In the case of `CCN1CCN(Cc2ccc(O[C@H]3O[C@@H]4O[C@@]5(C)CC[C@H]6[C@H](C)CC[C@@H]([C@H]3C)[C@@]46OO5)cc2)CC1` [Example 8, (10S)—O-[4-((4-ethylpiperazin-1-yl)methyl)phenyl]-dihydroartemisinin], the IC50 in data set [4] was found to be 0.083 µM.
Consider `CC1CCC2C(C)[C@@H](Oc3ccc(CC(=O)N4CCN(c5ccc(F)cc5)CC4)cc3)OC3OC4(C)CCC1C32OO4` (stereo partly drawn) [Example 42, (10S)—O-{4-[2-[4-(4-fluorophenyl)piperazin-1-yl]-2-oxoethyl]phenyl}-dihydroartemisinin], for which the results for the IC50 in data set [3] and in data set [5] were 1.09 µM and 0.0112 µM, respectively.

What is called melting point is the temperature of the solid-liquid transition.
